The target of the experiment is T1, Human DGAT1 (Homo sapiens, UniProt O75907).
T1 construct: made in house; host or cells: Sf9 insect cells (baculovirus); microsomes used as enzyme
T1 sequence (O75907 1-488): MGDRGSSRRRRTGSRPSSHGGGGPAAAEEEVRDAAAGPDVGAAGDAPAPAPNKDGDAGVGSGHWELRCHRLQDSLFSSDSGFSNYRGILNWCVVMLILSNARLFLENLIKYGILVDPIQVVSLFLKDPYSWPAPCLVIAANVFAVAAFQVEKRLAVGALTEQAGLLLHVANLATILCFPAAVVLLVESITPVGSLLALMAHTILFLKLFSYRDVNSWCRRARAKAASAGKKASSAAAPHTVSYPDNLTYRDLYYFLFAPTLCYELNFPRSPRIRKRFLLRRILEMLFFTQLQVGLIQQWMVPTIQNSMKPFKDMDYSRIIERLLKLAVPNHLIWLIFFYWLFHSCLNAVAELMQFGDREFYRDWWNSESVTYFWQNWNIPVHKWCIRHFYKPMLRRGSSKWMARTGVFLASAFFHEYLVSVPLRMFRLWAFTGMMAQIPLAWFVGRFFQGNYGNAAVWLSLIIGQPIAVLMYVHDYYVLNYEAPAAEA
Briefly: human DGAT1 lipid extraction (LE) assay, inhibition of triacylglycerol product formation. It counts as biochemical. Particulars: human DGAT1 microsomes from Sf9 cells, read-out: hDGAT LE IC50. On the procedure: Human DGAT1 was expressed in Sf9 insect cells using a baculovirus expression system. Microsomes were prepared and used as enzyme for in vitro inhibition testing in either of two formats measuring production of coenzyme A or tridecanoylglycerol product, respectively. All steps were performed at 21-23° C. All data for DGAT1 inhibition by test compounds were collected under conditions where product formation was linear with reaction time.
For inhibition of triacylglycerol product formation, 11 uL reactions were run in white Polyplate-384 (PerkinElmer6007300) starting with a 30 minute pre-reaction incubation of 5 uL of 2.2× enzyme and 1 uL of 100% DMSO containing test compound or control compound, {4-[4-(4-amino-7,7-dimethyl-7H-pyrimido[4,5-b][1,4]oxazin-6-yl)phenyl]cyclohexyl}acetic acid. Some assays were performed with inclusion of didecanoylglycerol in the pre-reaction incubation of test compounds and enzyme. Reactions were initiated after 30 minute pre-reaction incubation via addition of 5 uL of 2.2× substrate. Final reaction conditions consisted of 50 mM HEPES pH 7.5, 2 mM MgCl2, 1 mM CHAPS, 25 uM didecanoylglycerol, 0.5 uM decanoyl-CoA, 0.3 nCi/uL [^14C-]decanoyl-CoA or 0.5 nCi/uL [^3H]-decanoyl-CoA, 0.05-4 ug/mL microsomal protein, and 1% DMSO. Following 60 minute reaction incubation, reactions were stopped with 40 uL of 45% isopropanol and 50 mM sodium carbonate in water and mixed. Extraction of tridecanoylglycerol product was accomplished via addition of 30 uL Microscint-E (Perkin Elmer) and 2 hours of incubation (sealed). Plates were read on a Microbeta Microplate reader Inhibition was normalized to controls containing DMSO or 10 uM {4-[4-(4-amino-7,7-dimethyl-7H-pyrimido[4,5-b][1,4]oxazin-6-yl)phenyl]cyclohexyl}acetic acid. IC50s were fitted using GraphPad Prism to a sigmoidal dose response.

Bounds are passed on as bounds.

What is called IC50 is the concentration needed to halve the response being measured. Regarding `Cc1ccc(Nc2ccc(-c3ccc4c(c3)CCC(CC(=O)O)(CC(F)(F)F)C4=O)nc2)nc1` (single isomer, unassigned) [Example 13, 2-(6-(5-(5-methylpyridin-2-ylamino)pyridin-2-yl)-1-oxo-2-(2,2,2-trifluoroethyl)-1,2,3,4-tetrahydronaphthalen-2-yl)acetic acid], the IC50 was in the range of 0.1 to 0.5 µM.

With `O=C(O)CC1(CC(F)(F)F)CCc2cc(-c3ccc(Nc4cccc(Cl)c4)nn3)ccc2C1=O` (single isomer, unassigned) [Example 21, 2-(6-(6-((3-chlorophenyl)amino)pyridazin-3-yl)-1-oxo-2-(2,2,2-trifluoroethyl)-1,2,3,4-tetrahydronaphthalen-2-yl)acetic acid], the IC50 was at most 0.1 µM.

With `O=C(O)CC1(CC(F)(F)F)CCc2cc(-c3cnc(Nc4ccc(C(F)(F)F)nc4)s3)ccc2C1=O` (single isomer, unassigned) [Example 27, 2-(1-oxo-2-(2,2,2-trifluoroethyl)-6-(2-(6-(trifluoromethyl)pyridin-3-ylamino)thiazol-5-yl)-1,2,3,4-tetrahydronaphthalen-2-yl)acetic acid], the 50% inhibitory concentration (IC50) fell in the range of 0.1 to 0.5 µM.

`O=C(O)CC1(CC(F)(F)F)CCc2cc(-c3cnc(Nc4ccc5c(c4)OCO5)cn3)ccc2C1=O` (single isomer, unassigned) [Example 19, 2-(6-(5-(benzo[d][1,3]dioxol-5-ylamino)pyrazin-2-yl)-1-oxo-2-(2,2,2-trifluoroethyl)-1,2,3,4-tetrahydronaphthalen-2-yl)acetic acid]: the IC50 lay within 0.1 to 0.5 µM.

On to `O=C(O)CC1(CC(F)(F)F)CCc2cc(-c3cnc(Nc4ccc(C(F)(F)F)nc4)cn3)ccc2C1=O` (single isomer, unassigned) [Example 15, 2-(1-oxo-2-(2,2,2-trifluoroethyl)-6-(5-(6-(trifluoromethyl)pyridin-3-ylamino)pyrazin-2-yl)-1,2,3,4-tetrahydronaphthalen-2-yl)acetic acid], for which the IC50 fell in the range of 0.5 to 10 µM.

In the case of `O=C(O)CC1(CC(F)(F)F)CCc2cc(-c3ccc(Nc4ccc(Cl)cc4)cn3)ccc2C1=O` (single isomer, unassigned) [Example 2, 2-(6-(5-(4-Chlorophenylamino)pyridin-2-yl)-1-oxo-2-(2,2,2-trifluoroethyl)-1,2,3,4-tetrahydronaphthalen-2-yl)acetic acid], the IC50 was at most 0.1 µM.

With `O=C(O)CC1(CC(F)(F)F)CCc2cc(-c3ccc(Nc4cccc(Cl)c4)cn3)ccc2C1=O` (single isomer, unassigned) [Example 11, 2-(6-(5-(3-chlorophenylamino)pyridin-2-yl)-1-oxo-2-(2,2,2-trifluoroethyl)-1,2,3,4-tetrahydronaphthalen-2-yl)acetic acid], the IC50 lay in the range of 0.1 to 0.5 µM.

On to `O=C(O)CC1(CC(F)(F)F)CCc2cc(-c3cnc(Nc4ccc(C(F)(F)F)nc4)cn3)ccc2C1=O` (single isomer, unassigned) [Example 14, 2-(1-Oxo-2-(2,2,2-trifluoroethyl)-6-(5-(6-(trifluoromethyl)pyridin-3-ylamino)pyrazin-2-yl)-1,2,3,4-tetrahydro-naphthalen-2-yl)acetic acid], for which the IC50 was at most 0.1 µM.

With `CCC1(CC(=O)O)CCc2cc(-c3ccc(Nc4ccc(C(F)(F)F)nc4)cn3)ccc2C1=O` (single isomer, unassigned) [Example 4, 2-(2-Ethyl-1-oxo-6-(5-(6-(trifluoromethyl)pyridin-3-ylamino)pyridin-2-yl)-1,2,3,4-tetrahydronaphthalen-2-yl)acetic acid], the half-inhibitory concentration (IC50) was at most 0.1 µM.

With `O=C(O)CC1(CC(F)(F)F)CCc2cc(-c3ccc(Nc4ccc(C(F)(F)F)nc4)nn3)ccc2C1=O` (single isomer, unassigned) [Example 24, 2-(1-oxo-2-(2,2,2-trifluoroethyl)-6-(6-(6-(trifluoromethyl)pyridin-3-ylamino)pyridazin-3-yl)-1,2,3,4-tetrahydronaphthalen-2-yl)acetic acid], the IC50 lay in the range of 0.5 to 10 µM.

`O=C(O)CC1(CC(F)(F)F)CCc2cc(-c3cnc(Nc4ccc5c(c4)OCO5)cn3)ccc2C1=O` (single isomer, unassigned) [Example 20, 2-(6-(5-(benzo[d][1,3]dioxol-5-ylamino)pyrazin-2-yl)-1-oxo-2-(2,2,2-trifluoroethyl)-1,2,3,4-tetrahydronaphthalen-2-yl)acetic acid]: the IC50 was 0.5 to 10 µM.

As for `O=C(O)CC1(CC(F)(F)F)CCc2cc(-c3cnc(Nc4ccc(C(F)(F)F)nc4)s3)ccc2C1=O` (single isomer, unassigned) [Example 28, 2-(1-oxo-2-(2,2,2-trifluoroethyl)-6-(2-(6-(trifluoromethyl)pyridin-3-ylamino)thiazol-5-yl)-1,2,3,4-tetrahydronaphthalen-2-yl)acetic acid], the IC50 was at most 0.1 µM.

As for `Cc1ccc(Nc2ccc(-c3ccc4c(c3)CCC(CC(=O)O)(CC(F)(F)F)C4=O)nc2)nc1` (single isomer, unassigned) [Example 12, 2-(6-(5-(5-methylpyridin-2-ylamino)pyridin-2-yl)-1-oxo-2-(2,2,2-trifluoroethyl)-1,2,3,4-tetrahydronaphthalen-2-yl)acetic acid], the IC50 was at most 0.1 µM.

With `O=C(O)CC1(CC(F)(F)F)CCc2cc(-c3ccc(Nc4ccc(C(F)(F)F)nc4)nn3)ccc2C1=O` (single isomer, unassigned) [Example 23, 2-(1-oxo-2-(2,2,2-trifluoroethyl)-6-(6-(6-(trifluoromethyl)pyridin-3-ylamino)pyridazin-3-yl)-1,2,3,4-tetrahydronaphthalen-2-yl)acetic acid], the IC50 is at most 0.1 µM.

Take `O=C(O)CC1(CC(F)(F)F)CCc2cc(-c3cnc(Nc4cccc(Cl)c4)s3)ccc2C1=O` (single isomer, unassigned) [Example 26, 2-(6-(2-(3-Chlorophenylamino)thiazol-5-yl)-1-oxo-2-(2,2,2-trifluoroethyl)-1,2,3,4-tetrahydronaphthalen-2-yl)acetic acid]: the IC50 fell in the range of 0.1 to 0.5 µM.

In the case of `Cc1cnc(Nc2ccc(-c3ccc4c(c3)CCC(CC(=O)O)(CC(F)(F)F)C4=O)nn2)s1` (single isomer, unassigned) [Example 25, 2-(6-(6-(5-methylthiazol-2-ylamino)pyridazin-3-yl)-1-oxo-2-(2,2,2-trifluoroethyl)-1,2,3,4-tetrahydronaphthalen-2-yl)acetic acid], the IC50 is 0.5 to 10 µM.

Consider `O=C(O)CC1(CC(F)(F)F)CCc2cc(-c3ccc(Nc4ccc(F)c(F)c4)cn3)ccc2C1=O` (single isomer, unassigned) [Example 10, 2-(6-(5-(3,4-difluorophenylamino)pyridin-2-yl)-1-oxo-2-(2,2,2-trifluoroethyl)-1,2,3,4-tetrahydronaphthalen-2-yl)acetic acid], for which the IC50 was at most 0.1 µM.

Take `O=C(O)CC1(CC(F)(F)F)CCc2cc(-c3cnc(Nc4ccc(Cl)cn4)cn3)ccc2C1=O` (single isomer, unassigned) [Example 18, 2-(6-(5-(5-chloropyridin-2-ylamino)pyrazin-2-yl)-1-oxo-2-(2,2,2-trifluoroethyl)-1,2,3,4-tetrahydronaphthalen-2-yl)acetic acid]: the IC50 was in the range of 0.1 to 0.5 µM.

`O=C(O)CC1(CC(F)(F)F)CCc2cc(-c3ccc(Nc4ccc(C(F)(F)F)nc4)cn3)ccc2C1=O` (single isomer, unassigned) [Example 1, 2-(1-Oxo-2-(2,2,2-trifluoroethyl)-6-(5-(6-(trifluoromethyl)pyridin-3-ylamino)pyridin-2-yl)-1,2,3,4-tetrahydronaphthalen-2-yl)acetic acid]: the IC50 was at most 0.1 µM.

`O=C(O)CC1(CC(F)(F)F)CCc2cc(-c3cnc(Nc4ccc(Cl)cn4)cn3)ccc2C1=O` (single isomer, unassigned) [Example 17, 2-(6-(5-(5-chloropyridin-2-ylamino)pyrazin-2-yl)-1-oxo-2-(2,2,2-trifluoroethyl)-1,2,3,4-tetrahydronaphthalen-2-yl)acetic acid]: the IC50 was 0.1 to 0.5 µM.

Regarding `CC1(CC(=O)O)CCc2cc(-c3ccc(Nc4ccc(C(F)(F)F)nc4)cn3)ccc2C1=O` (single isomer, unassigned) [Example 3, 2-(2-Methyl-1-oxo-6-(5-(6-(trifluoromethyl)pyridin-3-ylamino)pyridin-2-yl)-1,2,3,4-tetrahydronaphthalen-2-yl)acetic acid], the IC50 lay in the range of 0.5 to 10 µM.

The values are drawn from patent US9221766B2, “Compounds as diacylglycerol acyltransferase inhibitors” (GlaxoSmithKline LLC, priority 2012, dated 2015).
